Measurements published in paper PMC10709440, “High-throughput ligand profile characterization in novel cell lines expressing seven heterologous insect olfactory receptors for the detection of volatile plant biomarkers” (Scientific Reports, 2023).
Read-outs that look alike come from different tables or passages of the source.

Key:
Drosophila OR13a = target: T1, Drosophila OR13a (Drosophila melanogaster, UniProt Q9VXL0); experiment: Calcium ion fluorescence (GCaMP6) assay, OR13a stable HEK293 cell line; type: cell-based; parameters: key to DF norm AVERAGE OR13a: VOC ∆F divided by the plate's mean ∆F response to 50 µM VUAA1; conditions: for OR13a response (VUAA1-normalized) at 1 μM / OR13a response (VUAA1-normalized) at 10 μM / OR13a response (VUAA1-normalized) at 100 μM: OR13a cell line; for DF norm AVERAGE OR13a: threshold 0.05, below shown as 0
T1 construct: expressed in transfected cells
T1 sequence (Q9VXL0 1-418): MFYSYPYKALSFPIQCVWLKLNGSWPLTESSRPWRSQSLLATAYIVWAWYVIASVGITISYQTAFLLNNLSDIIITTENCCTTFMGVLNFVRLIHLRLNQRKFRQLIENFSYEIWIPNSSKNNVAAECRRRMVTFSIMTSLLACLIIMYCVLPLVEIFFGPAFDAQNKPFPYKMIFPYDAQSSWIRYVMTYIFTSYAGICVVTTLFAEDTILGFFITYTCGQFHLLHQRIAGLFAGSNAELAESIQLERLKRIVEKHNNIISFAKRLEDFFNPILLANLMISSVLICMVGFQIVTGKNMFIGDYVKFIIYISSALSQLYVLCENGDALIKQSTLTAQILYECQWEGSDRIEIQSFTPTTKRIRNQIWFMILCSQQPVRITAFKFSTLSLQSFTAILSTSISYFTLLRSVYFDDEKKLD
T1 sequence (Q9VNB5 1-486 partner): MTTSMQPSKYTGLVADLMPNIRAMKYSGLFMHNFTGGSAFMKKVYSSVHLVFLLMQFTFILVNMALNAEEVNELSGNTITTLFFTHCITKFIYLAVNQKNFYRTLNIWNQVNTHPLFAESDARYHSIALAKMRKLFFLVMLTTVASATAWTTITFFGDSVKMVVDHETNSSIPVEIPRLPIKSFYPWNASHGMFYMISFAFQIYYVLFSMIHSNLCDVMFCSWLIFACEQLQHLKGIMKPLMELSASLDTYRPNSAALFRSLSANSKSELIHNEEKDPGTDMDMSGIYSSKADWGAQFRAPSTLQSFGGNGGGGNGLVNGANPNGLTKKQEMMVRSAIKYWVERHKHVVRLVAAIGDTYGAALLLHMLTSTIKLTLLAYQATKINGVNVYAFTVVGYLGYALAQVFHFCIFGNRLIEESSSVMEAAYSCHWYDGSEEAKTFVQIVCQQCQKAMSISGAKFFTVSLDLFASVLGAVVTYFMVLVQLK
How it was run: (§1)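 Responses are VUAA1-normalized ΔF: each VOC-evoked calcium signal, (FMAX−F0)/F0 over 30 s after injection, divided by the same line's mean 50 µM VUAA1 response. Cells were doxycycline-induced HEK293 with GCaMP6 and the cognate Drosophila OR, in HEPES buffer pH 7.3; ligands tested 0.01–100 μM.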

Drosophila OR49b = target: T2, Drosophila OR49b (Drosophila melanogaster, UniProt Q9V6H2); experiment: cell-based; conditions: for OR49b response (VUAA1-normalized) at 1 μM / OR49b response (VUAA1-normalized) at 10 μM / OR49b response (VUAA1-normalized) at 100 μM / Average response: OR49b cell line; for Average response: mean of biological replicates; for DF norm AVERAGE OR49b: threshold 0.05, below shown as 0
T2 construct: expressed in transfected cells
T2 sequence (Q9V6H2 1-375): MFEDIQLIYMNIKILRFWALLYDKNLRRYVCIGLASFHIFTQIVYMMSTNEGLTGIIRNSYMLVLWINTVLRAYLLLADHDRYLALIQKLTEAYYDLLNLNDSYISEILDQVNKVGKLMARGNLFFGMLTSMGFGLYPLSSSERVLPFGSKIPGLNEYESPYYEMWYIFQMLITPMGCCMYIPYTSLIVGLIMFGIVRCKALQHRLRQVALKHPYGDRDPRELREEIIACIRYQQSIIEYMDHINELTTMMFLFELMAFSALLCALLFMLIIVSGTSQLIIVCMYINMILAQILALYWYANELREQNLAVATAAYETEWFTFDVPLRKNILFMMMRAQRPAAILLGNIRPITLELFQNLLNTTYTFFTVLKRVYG
T2 sequence (Q9VNB5 1-486 partner): T1 sequence (Q9VNB5 1-486 partner)
How it was run: as §1

[1] = HEK293, read-out: OR13a Average response (VUAA1-normalized), 1 μM VOC, 50 μM VUAA1 = 1, responses not exceeding 0.05 considered 0
[2] = HEK293, read-out: OR13a Average response (VUAA1-normalized), 10 μM VOC, 50 μM VUAA1 = 1, responses not exceeding 0.05 considered 0
[3] = HEK293, read-out: OR13a Average response (VUAA1-normalized), 100 μM VOC, 50 μM VUAA1 = 1, responses not exceeding 0.05 considered 0
[4] = ligand concentration 1 (unit not given)
[5] = ligand concentration 10 (unit not given)
[6] = ligand concentration 100 (unit not given)
[7] = HEK293, read-out: OR13a response (VUAA1-normalized response), VOC concentration 1 μM
[8] = HEK293, read-out: OR13a response (VUAA1-normalized response), VOC concentration 10 μM
[9] = HEK293, read-out: OR13a response (VUAA1-normalized response), VOC concentration 100 μM
[10] = HEK293, VOC concentration 1 μM, read-out: OR49b response (VUAA1-normalized response)
[11] = HEK293, VOC concentration 10 μM, read-out: OR49b response (VUAA1-normalized response)
[12] = HEK293, VOC concentration 100 μM, read-out: OR49b response (VUAA1-normalized response)
[13] = HEK293, read-out: OR13a Average response (VUAA1-normalized)
[14] = HEK293, read-out: OR13a response (VUAA1-normalized response)
[15] = HEK293, read-out: OR49b Average response (VUAA1-normalized)
[16] = HEK293, read-out: OR49b response (VUAA1-normalized response)

Structure (SMILES)	activation at 1 µM (Drosophila OR13a; [1]) [%]	activation at 10 µM (Drosophila OR13a; [2]) [%]	activation at 100 µM (Drosophila OR13a; [3]) [%]	DF norm AVERAGE OR13a (Drosophila OR13a; [4])	DF norm AVERAGE OR13a (Drosophila OR13a; [5])	DF norm AVERAGE OR13a (Drosophila OR13a; [6])	Average response (Drosophila OR49b; odorant cc. 1 µM)	Average response (Drosophila OR49b; odorant cc. 10 µM)	Average response (Drosophila OR49b; odorant cc. 100 µM)	DF norm AVERAGE OR49b (Drosophila OR49b; [4])	DF norm AVERAGE OR49b (Drosophila OR49b; [5])	DF norm AVERAGE OR49b (Drosophila OR49b; [6])	activation at 1 µM (Drosophila OR13a; [7]) [%]	activation at 10 µM (Drosophila OR13a; [8]) [%]	activation at 100 µM (Drosophila OR13a; [9]) [%]	activation at 1 µM (Drosophila OR49b; [10]) [%]	activation at 10 µM (Drosophila OR49b; [11]) [%]	activation at 100 µM (Drosophila OR49b; [12]) [%]	further results
COC(=O)c1ccccc1 [methyl benzoate]	0	0	6	0	0	0.06097	0.13	0.00	0.05	0.1337	0	0	–	–	–	–	–	–	OR13a response (VUAA1-normalized) at 1 μM (Drosophila OR13a; VOC concentration 1 μM): 0.00; OR13a response (VUAA1-normalized) at 10 μM (Drosophila OR13a; VOC concentration 10 μM): 0.00; OR13a response (VUAA1-normalized) at 100 μM (Drosophila OR13a; VOC concentration 100 μM): 0.06; OR49b response (VUAA1-normalized) at 1 μM (Drosophila OR49b; VOC concentration 1 μM): 0.13; OR49b response (VUAA1-normalized) at 10 μM (Drosophila OR49b; VOC concentration 10 μM): 0.00; OR49b response (VUAA1-normalized) at 100 μM (Drosophila OR49b; VOC concentration 100 μM): 0.00
CCCC(=O)OCC [ethyl butyrate]	0	0	0	0	0	0	0.00	0.00	0.00	0	0	0	0	0	0	0	0	0	–
CCCCCC(=O)OCC [ethyl hexanoate]	3.2	2.46	0	0	0	0	0.00	0.00	0.00	0	0	0	0	0	0	0	0	0	–
CC/C=C\CCO [E-3-hexenol]	–	–	–	–	–	–	–	–	–	–	–	–	–	–	–	–	–	–	OR13a response (VUAA1-normalized response) (Drosophila OR13a; VOC concentration 1 μM): 0.00; OR13a response (VUAA1-normalized response) (Drosophila OR13a; VOC concentration 10 μM): 0.00; OR13a response (VUAA1-normalized response) (Drosophila OR13a; VOC concentration 100 μM): 0.07; OR49b response (VUAA1-normalized response) (Drosophila OR49b; VOC concentration 1 μM): 0.00; OR49b response (VUAA1-normalized response) (Drosophila OR49b; VOC concentration 10 μM): 0.00; OR49b response (VUAA1-normalized response) (Drosophila OR49b; VOC concentration 100 μM): 0.08
CCc1ccccc1 [ethylbenzene]	–	–	–	0	0	0	0.05	0.09	0.33	0.05039	0.08967	0.3273	–	–	–	–	–	–	activation at 1 µM (Drosophila OR13a; [13]): 1.44%; activation at 10 µM (Drosophila OR13a; [13]): 1.55%; activation at 100 µM (Drosophila OR13a; [13]): 0%; activation at 1 µM (Drosophila OR13a; [14]): 0%; activation at 10 µM (Drosophila OR13a; [14]): 0%; activation at 100 µM (Drosophila OR13a; [14]): 0%; activation at 1 µM (Drosophila OR49b; [15]): 5%; activation at 10 µM (Drosophila OR49b; [15]): 9%; activation at 100 µM (Drosophila OR49b; [15]): 33%; activation at 1 µM (Drosophila OR49b; [16]): 5%; activation at 10 µM (Drosophila OR49b; [16]): 9%; activation at 100 µM (Drosophila OR49b; [16]): 33%
CC1=CC[C@@H](C(C)(C)O)CC1 [alpha-terpineol]	3.36	0	0	0	0	0	0.00	0.00	0.0245	0	0	0	0	0	0	0	0	0	–
OCCc1ccccc1 [phenethyl alcohol]	6.58	6	3	0.06578	0.05738	0	0.0257	0.00	0.09	0	0	0.09318	–	–	–	–	–	–	OR13a response (VUAA1-normalized) at 1 μM (Drosophila OR13a; VOC concentration 1 μM): 0.0658; OR13a response (VUAA1-normalized) at 10 μM (Drosophila OR13a; VOC concentration 10 μM): 0.06; OR13a response (VUAA1-normalized) at 100 μM (Drosophila OR13a; VOC concentration 100 μM): 0.00; OR49b response (VUAA1-normalized) at 1 μM (Drosophila OR49b; VOC concentration 1 μM): 0.00; OR49b response (VUAA1-normalized) at 10 μM (Drosophila OR49b; VOC concentration 10 μM): 0.00; OR49b response (VUAA1-normalized) at 100 μM (Drosophila OR49b; VOC concentration 100 μM): 0.09
